Our source for the GI50 and TGI values is PubChem BioAssay (NCI).

Several values for one entry are separate records, joined by “and”; a condition that tells them apart may be missing. Equal entries are not always repeated.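 The compound was tested at five concentrations on cells cultured in 96-well plates, with a 48-hour exposure period. GI50: concentration for 50% inhibition of growth. TGI marks complete inhibition of growth.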

Among the test systems are NCI-H23 lung; U251 CNS; HT29 colon; SR leukemia; TK-10 renal; HOP-62 NSCLC; MALME-3M melanoma; OVCAR-4 ovarian; SF-539 CNS; SK-MEL-5 melanoma.
Holding throughout (assay): inhibition of tumour cell growth, NCI panel, 48 h

For `C#CCC(Cc1cnc2nc(N)nc(N)c2n1)c1ccc(C(=O)N[C@@H](CCC(=O)O)C(=O)O)cc1` (some centres not stated), the GI50 is less than 17.4 nM in the test with NCI-H23 lung; less than 10 nM in the test on U251 CNS; less than 10 nM with HT29 colon; less than 10 nM in the test on SR leukemia; less than 0.01 µM with TK-10 renal; less than 10 nM in the test on HOP-62 NSCLC. Besides, the GI50 with MALME-3M melanoma was more than 44 µM; with OVCAR-4 ovarian it was 0.975 µM; in the test on SF-539 CNS it was less than 10 nM; with SK-MEL-5 melanoma it was less than 10 nM. The TGI in the test with NCI-H23 lung, in the test on U251 CNS, in the test with HT29 colon, in the test on SR leukemia, in the test on TK-10 renal and in the test on HOP-62 NSCLC was more than 100 µM in each case. The TGI with MALME-3M melanoma, in the test with OVCAR-4 ovarian, with SF-539 CNS and with SK-MEL-5 melanoma was more than 100 µM each time.
Regarding `CCC(CO)Nc1nc(NCc2ccccc2O)c2ncn(C(C)C)c2n1` (configuration not stated), the GI50 in the test with NCI-H23 lung was 2980 nM; with U251 CNS it was 4750 nM; in the test on HT29 colon, 3670 nM; with SR leukemia, 1350 nM; with TK-10 renal, 10.2 µM; with HOP-62 NSCLC, 5620 nM. Moreover, the GI50 is 40.1 µM with MALME-3M melanoma, 5.42 µM in the test with OVCAR-4 ovarian, 3720 nM in the test with SF-539 CNS and 2540 nM in the test with SK-MEL-5 melanoma. Further, the TGI with NCI-H23 lung is 15.7 µM; with U251 CNS, more than 100 µM; with HT29 colon, 60.1 µM; with SR leukemia, 4.1 µM; in the test on TK-10 renal, more than 100 µM; with HOP-62 NSCLC, more than 100 µM. The TGI was more than 100 µM in the test with MALME-3M melanoma, 33.6 µM in the test with OVCAR-4 ovarian, 28.4 µM in the test with SF-539 CNS and 11.9 µM with SK-MEL-5 melanoma.
Take `CC(=O)[C@@]1(O)CC[C@H]2[C@@H]3C[C@H](C)C4=CC(=O)CC[C@]4(C)[C@H]3[C@@H](O)C[C@@]21C`: the TGI with NCI-H23 lung, in the test with U251 CNS, in the test with HT29 colon, in the test with SR leukemia, with TK-10 renal and in the test on HOP-62 NSCLC was more than 100 µM in each case. Moreover, the TGI with MALME-3M melanoma, with OVCAR-4 ovarian, in the test with SF-539 CNS and in the test with SK-MEL-5 melanoma was more than 100 µM throughout.
Turning to `CCCCCC/C=C1\CCC(CN2CCCC2)C1=O` (configuration not stated), the TGI with NCI-H23 lung is 33.8 µM; with U251 CNS, 30 µM; with HT29 colon it was 34.2 µM; in the test on SR leukemia, more than 22.4 µM; in the test with TK-10 renal, 17.4 µM; with HOP-62 NSCLC, 34.2 µM. Also, the TGI with MALME-3M melanoma came out at 34.6 µM; in the test with OVCAR-4 ovarian, 49.1 µM; in the test on SF-539 CNS it was 34.1 µM; with SK-MEL-5 melanoma, 32.8 µM.
`CCOC(=O)c1[nH]c(Br)c(-c2ccc(Br)cc2)c1Br`: the GI50 was 2480 nM in the test on NCI-H23 lung; 394 nM in the test with U251 CNS; 199 nM with SR leukemia; 2.34 µM in the test on TK-10 renal; 514 nM in the test with HOP-62 NSCLC; 0.46 µM in the test on MALME-3M melanoma. In addition, the GI50 in the test on SF-539 CNS is 298 nM. Moreover, the TGI in the test with NCI-H23 lung is 6.94 µM and 14.3 µM; with U251 CNS, 3.55 µM and 1.93 µM; in the test on HT29 colon, 1.32 µM and 1.62 µM; in the test with SR leukemia, 11.1 µM; in the test with TK-10 renal, 9.99 µM and 11.3 µM; in the test with HOP-62 NSCLC it was 4.74 µM and 2.81 µM. Further, the TGI with MALME-3M melanoma was 15.8 µM; in the test on OVCAR-4 ovarian, 3.6 µM and 3.5 µM; in the test on SF-539 CNS, 1.85 µM and 0.858 µM; with SK-MEL-5 melanoma, 19.1 µM.
Turning to `COc1ccc2c(=O)c3ccoc3n(CC=C(C)C)c2c1`, the TGI with NCI-H23 lung, in the test on U251 CNS, in the test with HT29 colon, with SR leukemia, in the test on TK-10 renal and in the test on HOP-62 NSCLC was more than 100 µM throughout. Further, the TGI was 18.7 µM in the test on MALME-3M melanoma, more than 100 µM with OVCAR-4 ovarian, more than 100 µM with SF-539 CNS and more than 69.3 µM in the test with SK-MEL-5 melanoma.
`O=C(CC1(O)C(=O)Nc2c(Cl)ccc(Cl)c21)c1ccc2ccccc2c1` (configuration not stated): the TGI in the test with NCI-H23 lung turned out to be 27 µM; in the test on U251 CNS, 61.3 µM; in the test with HT29 colon, 8.61 µM; with SR leukemia, 7.62 µM; in the test with TK-10 renal, 44.4 µM; in the test with HOP-62 NSCLC, 99.2 µM. Also, the TGI in the test on MALME-3M melanoma was 25.1 µM; with OVCAR-4 ovarian, 5.92 µM; in the test with SF-539 CNS, 35.5 µM; with SK-MEL-5 melanoma, 17.7 µM.
For `BrC1=CC=C2NC=CC3=CC=NC1C32` (configuration not stated), the TGI in the test with NCI-H23 lung was more than 82.8 µM; with U251 CNS, more than 100 µM; in the test with HT29 colon, more than 66.2 µM; in the test on SR leukemia it was 26 µM; in the test on TK-10 renal, 99.8 µM; in the test with HOP-62 NSCLC, more than 100 µM. In addition, the TGI is 67.1 µM with MALME-3M melanoma, 97.3 µM in the test with OVCAR-4 ovarian, more than 100 µM in the test on SF-539 CNS and 45.4 µM in the test with SK-MEL-5 melanoma.
On to `COc1cc2cc(Oc3ccc(NC(=O)Nc4cccc(C(F)(F)F)c4)cc3)c(C)nc2cc1OC`, for which the GI50 was 1700 nM with NCI-H23 lung; 1560 nM with U251 CNS; 2050 nM in the test on HT29 colon; 1170 nM in the test on SR leukemia; 2.26 µM in the test on TK-10 renal; 2330 nM with HOP-62 NSCLC. Besides, the GI50 with MALME-3M melanoma was 1.71 µM; with OVCAR-4 ovarian it was 2.3 µM; in the test on SF-539 CNS, 2480 nM; with SK-MEL-5 melanoma, 1080 nM. The TGI stood at 7.41 µM with NCI-H23 lung; 5.61 µM in the test with U251 CNS; 6.26 µM in the test with HT29 colon; 3.33 µM in the test on SR leukemia; 9.93 µM with TK-10 renal; 8.44 µM in the test on HOP-62 NSCLC. Further, the TGI with MALME-3M melanoma was determined as 4.9 µM; in the test with OVCAR-4 ovarian it was 9.7 µM; in the test with SF-539 CNS it was 8.74 µM; in the test with SK-MEL-5 melanoma, 2.66 µM.
In the case of `Cc1c(-c2c(-c3ccc(F)o3)sc3ncnc(O[C@H](Cc4ccccc4OCc4ccnn4CC(F)(F)F)C(=O)O)c23)ccc(OCCN2CCN(C)CC2)c1Cl`, the GI50 in the test on NCI-H23 lung is 2590 nM; in the test on U251 CNS, 4590 nM; in the test on HT29 colon, 4540 nM; in the test with SR leukemia, 162 nM; with TK-10 renal, 5.31 µM; with HOP-62 NSCLC it was 5310 nM. The GI50 was 3.37 µM with MALME-3M melanoma, 4.86 µM in the test on OVCAR-4 ovarian, 2890 nM with SF-539 CNS and 3130 nM in the test on SK-MEL-5 melanoma. Also, the TGI is 7.6 µM in the test with NCI-H23 lung; 10.7 µM in the test with U251 CNS; 9.41 µM in the test with HT29 colon; 2.01 µM in the test with SR leukemia; 16.2 µM in the test with TK-10 renal; 14.3 µM in the test with HOP-62 NSCLC. Further, the TGI stood at 7.52 µM with MALME-3M melanoma, 17.8 µM with OVCAR-4 ovarian, 6.27 µM in the test with SF-539 CNS and 6.25 µM with SK-MEL-5 melanoma.
`O=C1/C(=C/c2ccccc2)CN(C(=O)c2cccnc2)C/C1=C\c1ccccc1`: the GI50 is 1830 nM in the test on NCI-H23 lung; 435 nM in the test with U251 CNS; 241 nM in the test on HT29 colon; 311 nM in the test on SR leukemia; 3.57 µM with TK-10 renal; 3020 nM in the test on HOP-62 NSCLC. In addition, the GI50 in the test on MALME-3M melanoma is 4.78 µM; in the test on OVCAR-4 ovarian, 3.3 µM; in the test on SF-539 CNS it was 2140 nM; in the test on SK-MEL-5 melanoma it was 1800 nM. Also, the TGI is 5.19 µM with NCI-H23 lung; 2.41 µM in the test with U251 CNS; 0.563 µM in the test on HT29 colon; 1.35 µM with SR leukemia; 13.4 µM in the test with TK-10 renal; 10.4 µM in the test with HOP-62 NSCLC. Further, the TGI with MALME-3M melanoma was 18.9 µM; with OVCAR-4 ovarian it was 13.8 µM; in the test on SF-539 CNS, 6.19 µM; in the test with SK-MEL-5 melanoma it was 3.68 µM.
Regarding `Nc1c(Br)cc(Br)c2c1[nH]c(=O)c1ccccc12`, the GI50 with NCI-H23 lung was 20700 nM; in the test on U251 CNS, 5080 nM; with HT29 colon, more than 29700 nM; in the test with SR leukemia, 2390 nM; with TK-10 renal, 3.67 µM; in the test with HOP-62 NSCLC it was 2560 nM. Also, the GI50 in the test with MALME-3M melanoma is 3.43 µM; in the test with OVCAR-4 ovarian it was 1.34 µM; with SF-539 CNS, 42000 nM; in the test with SK-MEL-5 melanoma, 34000 nM. The TGI was more than 100 µM in the test on NCI-H23 lung; 26.7 µM with U251 CNS; more than 100 µM with HT29 colon; 5.91 µM in the test on SR leukemia; 10.9 µM in the test with TK-10 renal; 6.39 µM with HOP-62 NSCLC. In addition, the TGI was 10.1 µM with MALME-3M melanoma, 3.43 µM in the test with OVCAR-4 ovarian, more than 100 µM with SF-539 CNS and more than 100 µM in the test with SK-MEL-5 melanoma.
As to `O=C(/C=C/c1cccnc1)NCCCCC1CCCN(C(=O)c2ccccc2)C1` (configuration not stated), the GI50 with NCI-H23 lung was 30300 nM; with U251 CNS, less than 10 nM; with HT29 colon, less than 10 nM; in the test on SR leukemia, 61.7 nM; with TK-10 renal it was more than 100 µM; with HOP-62 NSCLC, more than 94200 nM. The GI50 with MALME-3M melanoma was more than 44.5 µM; with OVCAR-4 ovarian it was more than 74 µM; with SF-539 CNS, less than 10 nM; in the test with SK-MEL-5 melanoma, less than 27.3 nM. Moreover, the TGI in the test on NCI-H23 lung, in the test on U251 CNS, in the test with HT29 colon, with SR leukemia, in the test on TK-10 renal and with HOP-62 NSCLC was more than 100 µM in each case. Further, the TGI in the test on MALME-3M melanoma, in the test on OVCAR-4 ovarian, in the test with SF-539 CNS and with SK-MEL-5 melanoma was more than 100 µM in each case.
